From patent US20240306641A1, “P-BOOSTER” (EUROCHEM ANTWERPEN, priority 2021, published 2024)

Legend:
Assay type in all cases: in vivo
[1] = test system: Arabidopsis thaliana Columbia-0; experiment: Arabidopsis horizontal plate leaf area assay
Experimental: (§1) All Arabidopsis plant experiments were performed using the Arabidopsis thaliana Columbia-0 background. The Arabidopsis pSPX1::GUS line is described in the […] 2008, 54: 965-975. For rice, the cultivar Nipponbare was used. For maize, the cultivars DKC 2931 and 8104 were used for regular pot experiments and sand-based pot experiments, respectively. For soybean, the cultivar Primus was used. […] The medium was solidified due to the addition of 0.6% Gelrite, unless stated otherwise. In case of vertical plates (root length and root hair measurements), the medium was supplied with 0.5% of sucrose and 1 μM (low phosphate, 1 μM KH2PO4, 9.9 mM KCl), 10 μM (low phosphate 10 μM KH2PO4, 9.9 mM KCl) or 1.25 mM KH2PO4 (high phosphate). Arabidopsis seeds were stratified for 2 days at 4° C. before germination. Seedlings were germinated in climate-controlled growth chambers at 22° C. under continuous light ([…] m^−2 s^−1). Husked rice seeds were germinated on wetted Whatman paper for 2 days at 37° C. and then transferred to Sterivent boxes or square Petri dishes with solid medium. Maize and soybean seeds were wetted 24 hours at room temperature prior to sowing in pots.
Arabidopsis primary root growth experiments were done on MS1/2 on vertical standing plates and roots were measured 11 days after germination. Roots were imaged using a flatbed scanner (EPSON Expression 11000XL) and root length was measured using ImageJ software. Arabidopsis shoot biomass was determined in 11 days after germination and growth on vertical standing plates with modMS. Arabidopsis leaf area was measured 21 days after germination on horizontal plates with modMS medium. Plates were scanned from the top using a flatbed scanner (EPSON Expression 11000XL) and the visible leaf area was measured using ImageJ software. Rice plate experiments used vertically standing Petri dishes containing MS1/2 medium (low phosphate—0.001 mM) solidified with 0.8% washed agar. Plant height was measured 11 days after germination. Rice box experiments used modMS medium and a low phosphate condition of 0.025 mM phosphate. Plant height was measured 13 days after germination. All growth experiments occurred with 10 μM of compound and in low phosphate conditions, unless stated otherwise. Controls always received the same DMSO concentration.

[2] = test system: Arabidopsis thaliana Columbia-0; experiment: Arabidopsis pot experiment (rosette size, soil phosphate, anthocyanin)
Experimental: Regular Arabidopsis, soybean and maize pot experiments used an unfertilized potting soil, which was supplemented at the start of the experiment with 50 ml H2O containing 0.25 g/l NH4NO3 and 0.44 g/l (high phosphate) or no (maize and soybean) or 0.11 g/l KH2PO (Arabidopsis) for low phosphate conditions. For the sand-based maize pot experiment, sand was supplemented with 50 ml H2O containing 0.25 g/l NH4NO3 and 0.38 g/l (high phosphate) or 0.02 g/l (low phosphate) KH2PO4. Potassium was balanced via addition of KCl. Compound concentration was 10 μM, calculated based on the total water content after watering, and was added at the start of the experiment (Arabidopsis) or once a week (maize). Indexed chlorophyll contents were received via a SPAD 502 Plus Chlorophyll Meter. All parameters in the sand experiment, except the rate of leaf 4 (measured the first 4 days after emergence), were measured 19 days after sowing. Measurements in the pot experiments with potting soil were done after 4 weeks of growth, except for leaf 5, which was measured at 26 days. The long term maize pot experiment was performed on the automated Phenovision platform (see Mertens et al, 2021, https://doi.org/10.3389/fpls.2021.640914) with maize cultivars B104 and DKC2931. End point measurements occurred after 90 days (B104) or 70 days (DKC2931). Plants were grown on an unfertilized potting soil, which was fertilized bi-weekly with 50 mL modified Hoagland solution (2.5× concentrated; but with 0.25 mM KH2PO4). Col-0 ecotype Arabidopsis seeds were sown in 96-well plates containing 150 μl of low phosphate modMS liquid medium containing 1% of sucrose. Compounds was added in 50 μM concentration (1% DMSO). 7 days after germination, plates were scanned using a flatbed scanner (EPSON Expression 11000XL) and wells containing non-germinated seedlings were excluded from the following analysis. Plants were removed from each well and 50 μl of medium was recovered from each well and used for molybdenum blue staining as described in Plant Physiology 2008, 146:1673-1686. To measure the phosphate level in soil, Olsen P extraction was used on 1 g of air dried soil, 500 ul of extract was used for molybdenum blue staining as described in The Plant cell 2013, 25:1641-1656. Values were expressed relative to the low phosphate control. Col-0 ecotype Arabidopsis seeds were sown in 96-well plates containing 150 μl of low phosphate modMS liquid medium containing 1% of sucrose. […] Extraction and quantification of anthocyanin levels was carried out according to The Plant cell 2013, 25:1641-1656. Anthocyanin levels were quantified by measuring absorption at 530 and 657 nm using a spectrophotometer and normalized to fresh weight input, and expressed relative to the low phosphate control. […]

maize cultivar DKC 2931 = experiment: Regular maize pot experiment (potting soil); details: low phosphate, 10 μM compound
Experimental: as §1
Regular Arabidopsis, soybean and maize pot experiments used an unfertilized potting soil, which was supplemented at the start of the experiment with 50 ml H2O containing 0.25 g/l NH4NO3 and 0.44 g/l (high phosphate) or no (maize and soybean) or 0.11 g/l KH2PO (Arabidopsis) for low phosphate conditions. For the sand-based maize pot experiment, sand was supplemented with 50 ml H2O containing 0.25 g/l NH4NO3 and 0.38 g/l (high phosphate) or 0.02 g/l (low phosphate) KH2PO4. Potassium was balanced via addition of KCl. Compound concentration was 10 μM, calculated based on the total water content after watering, and was added at the start of the experiment (Arabidopsis) or once a week (maize). Indexed chlorophyll contents were received via a SPAD 502 Plus Chlorophyll Meter. All parameters in the sand experiment, except the rate of leaf 4 (measured the first 4 days after emergence), were measured 19 days after sowing. Measurements in the pot experiments with potting soil were done after 4 weeks of growth, except for leaf 5, which was measured at 26 days. The long term maize pot experiment was performed on the automated Phenovision platform (see Mertens et al, 2021, https://doi.org/10.3389/fpls.2021.640914) with maize cultivars B104 and DKC2931. End point measurements occurred after 90 days (B104) or 70 days (DKC2931). Plants were grown on an unfertilized potting soil, which was fertilized bi-weekly with 50 mL modified Hoagland solution (2.5× concentrated; but with 0.25 mM KH2PO4).

soybean cultivar Primus = experiment: Soybean pot experiment; details: low phosphate, 4 weeks
Experimental: All Arabidopsis plant experiments were performed using the Arabidopsis thaliana Columbia-0 background. The Arabidopsis pSPX1::GUS line is described in the […] 2008, 54: 965-975. For rice, the cultivar Nipponbare was used. For maize, the cultivars DKC 2931 and 8104 were used for regular pot experiments and sand-based pot experiments, respectively. For soybean, the cultivar Primus was used. […] The medium was solidified due to the addition of 0.6% Gelrite, unless stated otherwise. […]
Regular Arabidopsis, soybean and maize pot experiments used an unfertilized potting soil, which was supplemented at the start of the experiment with 50 ml H2O containing 0.25 g/l NH4NO3 and 0.44 g/l (high phosphate) or no (maize and soybean) or 0.11 g/l KH2PO (Arabidopsis) for low phosphate conditions. […] Compound concentration was 10 μM, calculated based on the total water content after watering, and was added at the start of the experiment (Arabidopsis) or once a week (maize). […] All parameters in the sand experiment, except the rate of leaf 4 (measured the first 4 days after emergence), were measured 19 days after sowing. Measurements in the pot experiments with potting soil were done after 4 weeks of growth, except for leaf 5, which was measured at 26 days. […]

With `CCN(CCCNc1ncnc2nc(N)ccc12)c1ccccc1` [Example 1] the Leaf area ([1]; Arabidopsis horizontal plate, low phosphate, 10 μM compound, 21 days after germination (Table 1)) was 94 mm^2, the “Leaf area in suboptimal phosphate conditions” value ([1]; Arabidopsis horizontal plate, suboptimal phosphate (600 μM), 10 μM compound) was 120 mm^2 and the Average leaf area ([1]; Arabidopsis horizontal plates (Table 4), control without compound 63) was 66 mm^2. For the same molecule, the Relative anthocyanin level ([2]; Arabidopsis pot, 4-week old plant, relative to low phosphate control (=1)) was 0.7, the “Phosphate level in soil (relative value)” value ([2]; Arabidopsis pot, Olsen P, after 4 weeks, relative to low phosphate control (=1)) was 0.8 and the Rosette size ([2]; Arabidopsis pot, low phosphate, 10 μM compound, 4 weeks) was 17 cm^2. The “Anthocyanin level in the leaves (in words)” value ([2]; plants grown in pots) was “reduced”, the Plant height (maize cultivar DKC 2931; 4 weeks) was 59 cm and the Shoot weight (maize cultivar DKC 2931; 4 weeks) was 4 g. The “Leaf 5” value (maize cultivar DKC 2931; 26 days) was 43 cm, the Biomass (soybean cultivar Primus) was 4.4 g and the Plant height (soybean cultivar Primus) was 63 cm.
